The text below walks through data of patent US20130296370A1, “COMPOSITION COMPRISING A PHOTOACTIVATABLE LARVICIDE” (UNIVERSITA DEGLI STUDI DI PADOVA, priority 2010, published 2013).

One series relates to Aedes aegypti larvae. Kind of series: C14 porphyrin toxicity in the light. The class given is in vivo. To be noted: 5 μM C14. The procedure: […] After the irradiation period, larvae were kept in the dark and larval mortality was monitored for 6 days. Arithmetic means of percentages of dead larvae. Error bars represent standard deviations (n=3 replicates of 50 larvae each).
Irradiation of mosquito larvae were performed by employing full spectrum visible light (400-800 nm) at a fluence rate of 1.0 to 4.0 mW/cm^2 using low-pressure mercury discharge fluorescent tubes TL-D Standard Colours (TL-D 58W/33-640 1SL, PHILIPS, EC). The intensity of the incident radiation was measured by an ILT1400A radiometer/photometer, equipped with a SED623/HNK15 multi-junction thermopile detector (International Light Technologies Inc., MA, USA).
All the experiments were carried out in a climatic chamber at 28±2° C. with a regulated photoperiod of 12 hours. Transparent plastic trays, containing 500 ml C14 solutions or spring water were employed. Typically, 5±1 days old, 3rd-early 4th instar Aedes aegypti larvae were used. All the experiments were replicated three times.
Fifty larvae were added to groups of trays containing 5 μM porphyrin C14 solution or spring water as a control. Trays were provided with PFP (wherein PFP means powdered food pellet (PFP) with final particle diameter of 5-500 μm diameter obtained by crushing a standard food pellet for laboratory rodents, namely 4RF18 GLP (Mucedola Srl, Italy) using an electric blender and then sieving at mesh diameter 500 μm) and incubated in the dark for 12 hours. […] After irradiation, the trays were returned in the dark, and larval mortality was assessed every 24 hours for the following 6 days. Larvae not moving or not showing a normally vigorous escaping response at probing were defined as dead or dying, respectively, and counted together. Pupae formed during the experiment were transferred to smaller trays containing spring water, within screened cages at normal colony photoperiod conditions, and monitored for mortality and adult emergence.

Series [1] in a line: Aggregation of C14 by Beer-Lambert titration. In kind it is physicochemical. To be noted: aqueous solution; linear plot of Soret band at 424 nm. Here is the method: To test the possible occurrence of aggregation processes for this porphyrin, the intensity of the Soret band was titrated as a function of the porphyrin concentration according to the Beer-Lambert law. In a first phase of our investigations, the data were calculated up to a porphyrin concentration of 0.16 mM (FIG. 1A), since the optical density of more concentrated porphyrin solutions became too large even using cuvettes of 0.1 cm optical path. […] This spectral feature is generally attributed to the presence of porphyrin oligomers (Reddi E, Ceccon M, Valduga G, Joni G, Bommer J C, et al. (2002) Photophysical properties and antibacterial activity of meso-substituted cationic porphyrins. Photochem Photobiol 75: 462-470). To test the possibility that the hydrophobicity imparted by the long alkyl chain of C14 may favour the occurrence of some aggregation as the concentration increases, the titration was extended to larger molarities calculating the absorbance values at 404 nm instead of 424 nm (FIG. 2B).

Series [2] can be described thus: Adsorption and release of C14 on powdered food pellet (PFP). The note with it: 70 mg PFP in 500 ml 5 μM C14, 28° C., dark. In kind it is physicochemical. The procedure: C14 appeared to remain stably associated with food particles. Specifically, the C14 concentrations in the incubation buffers ranged from 0.01 μM (pH 7.0) to 0.024 μM (pH 9.5), corresponding to a release of just 2.14%-5.15% of the initial C14 amount.
A standard food pellet for laboratory rodents, namely 4RF18 GLP (Mucedola Srl, Italy), commonly used as mosquito larval food, was crushed using an electric blender and then sieved (mesh diameter 500 μm) to obtain powdered food pellet (PFP) with final particle diameter of 5-500 μm diameter. C14-PFP complexes were obtained by incubating PFP in C14 solutions. The loading of C14 on PFP and the dynamics of its release from the C14-PFP complexes in water were analysed by spectrophotometric quantification. Specifically, to evaluate the C14 binding rate on PFP, 70 mg of PFP were incubated in 500 ml of a 5 μM solution of C14, at 28° C. for 5 days, in the dark. The same C14 solution without PFP served as control. The amount of unbound porphyrin was then estimated by measuring the absorbance at 423 nm of the supernatant of aliquots of the solutions collected at various incubation times and centrifuged at 10,000 rpm for 10 minutes. […] The amount of porphyrin released in the media from the formulate complexes was measured as described above. […]

For `CCCCCCCCCCCCCC[n+]1ccc(-c2c3nc(c(-c4cc[n+](C)cc4)c4ccc([nH]4)c(-c4cc[n+](C)cc4)c4nc(c(-c5cc[n+](C)cc5)c5ccc2[nH]5)C=C4)C=C3)cc1.Cc1ccc(S(=O)(=O)[O-])cc1.Cc1ccc(S(=O)(=O)[O-])cc1.Cc1ccc(S(=O)(=O)[O-])cc1.Cc1ccc(S(=O)(=O)[O-])cc1` [C14, meso-tri(N-methyl-pyridyl), mono(N-tetradecyl-pyridyl)porphine], the larval mortality in the series with Aedes aegypti larvae (6 hour-long light, count 24 hours later) is recorded as 100%; with Aedes aegypti larvae (dark-incubated 8 hours, 6 hour-long light 1.0-4.0 mW/cm^2, within irradiation period) it was 97.99%±0.05%; with Aedes aegypti larvae (irradiated one hour, thereafter kept in the dark, day 6), 92.1%±7.9%. Besides, the “concentration up to which a purely monomeric state is indicated” value in series [1] is recorded as “up to 0.16 mM”. In addition, the entries for the “C14 bound to the PFP particles” value in series [2] (24 hours) and in series [2] (5 days) were 82% and 92%, respectively.
